Laboratory results as given in ChEMBL document CHEMBL1697731, “Cheminformatics analysis of assertions mined from literature that describe drug-induced liver injury in different species” (Chem Res Toxicol, 2010).

Legend:
Hepatotoxicity [1] = experiment: Literature-mined compound from Fourches et al multi-species drug-induced liver injury (DILI) dataset, effect in rodents; settings: rodentia
Hepatotoxicity [2] = experiment: Literature-mined compound from Fourches et al multi-species drug-induced liver injury (DILI) dataset, effect in humans; settings: human
Hepatotoxicity [3] = experiment: Literature-mined compound from Fourches et al multi-species drug-induced liver injury (DILI) dataset, effect in non-rodents

| Molecule | Hepatotoxicity (Hepatotoxicity [1]) | Hepatotoxicity (Hepatotoxicity [2]) | Hepatotoxicity (Hepatotoxicity [3]) | Hepatotoxicity (Hepatotoxicity [1]; Liver) | Hepatotoxicity (Hepatotoxicity [2]; Liver) | Hepatotoxicity (Hepatotoxicity [3]; Liver) |
| --- | --- | --- | --- | --- | --- | --- |
| CC(C)C[C@H]1C(=O)N2CCC[C@H]2[C@]2(O)O[C@](NC(=O)[C@@H]3C=C4c5cccc6[nH]c(Br)c(c56)C[C@H]4N(C)C3)(C(C)C)C(=O)N12 [BROMOCRIPTINE] | drug-induced liver injury reported | no drug-induced liver injury reported | no drug-induced liver injury reported | – | – | – |
| O=C(O)c1cc(/N=N/c2ccc(S(=O)(=O)Nc3ccccn3)cc2)ccc1O [SULFASALAZINE] | drug-induced liver injury reported | drug-induced liver injury reported | no drug-induced liver injury reported | – | – | – |
| CN1CCC(=C2c3ccccc3CCc3sccc32)CC1 [PIZOTYLINE] | no drug-induced liver injury reported | drug-induced liver injury reported | no drug-induced liver injury reported | – | – | – |
| HYALURONIC ACID | drug-induced liver injury reported | drug-induced liver injury reported | no drug-induced liver injury reported | – | – | – |
| C[C@]12Cc3c[nH]nc3C[C@@H]1CC[C@@H]1[C@@H]2CC[C@@]2(C)[C@H]1CC[C@]2(C)O [STANOZOLOL] | drug-induced liver injury reported | drug-induced liver injury reported | no drug-induced liver injury reported | – | – | – |
| COc1ccccc1Oc1c(NS(=O)(=O)c2ccc(C(C)C)cn2)nc(-c2ccnc(-c3nnn[nH]3)c2)nc1OCCO [TEZOSENTAN] | drug-induced liver injury reported | no drug-induced liver injury reported | no drug-induced liver injury reported | – | – | – |
| O=C(O)CSCC(=O)NC1CCSC1=O (stereo unspecified) [ERDOSTEINE] | drug-induced liver injury reported | no drug-induced liver injury reported | no drug-induced liver injury reported | – | – | – |
| CCOC(=O)[C@H](CCc1ccccc1)N[C@@H](C)C(=O)N1Cc2ccccc2C[C@H]1C(=O)O | no drug-induced liver injury reported | drug-induced liver injury reported | no drug-induced liver injury reported | – | – | – |
| Cc1cc(C)nc(NS(=O)(=O)c2ccc(N)cc2)n1 [SULFAMETHAZINE] | drug-induced liver injury reported | drug-induced liver injury reported | no drug-induced liver injury reported | – | – | – |
| CC(=O)CC(c1ccc([N+](=O)[O-])cc1)c1c(O)c2ccccc2oc1=O (stereo unspecified) [ACENOCOUMAROL] | no drug-induced liver injury reported | drug-induced liver injury reported | no drug-induced liver injury reported | – | – | – |
| NC(=O)CC[C@H](N)C(=O)O [GLUTAMINE] | drug-induced liver injury reported | drug-induced liver injury reported | drug-induced liver injury reported | – | – | – |
| C=CC1=C(C(=O)O)N2C(=O)[C@@H](NC(=O)/C(=N\OCC(=O)O)c3csc(N)n3)[C@H]2SC1 [CEFIXIME] | no drug-induced liver injury reported | drug-induced liver injury reported | no drug-induced liver injury reported | – | – | – |
| C[C@H]1[C@H](NC(=O)/C(=N\OC(C)(C)C(=O)O)c2csc(N)n2)C(=O)N1S(=O)(=O)O [AZTREONAM] | no drug-induced liver injury reported | drug-induced liver injury reported | no drug-induced liver injury reported | – | – | – |
| N[C@@H](Cc1ccc(O)c(O)c1)C(=O)O [LEVODOPA] | drug-induced liver injury reported | drug-induced liver injury reported | no drug-induced liver injury reported | – | – | – |
| CC(=O)O[C@]1(C(C)=O)CC[C@H]2[C@@H]3C=C(C)C4=CC(=O)CC[C@]4(C)[C@H]3CC[C@@]21C [MEGESTROL ACETATE] | drug-induced liver injury reported | drug-induced liver injury reported | no drug-induced liver injury reported | – | – | – |
| CC(=O)N(O)CCCCCNC(=O)CCC(=O)N(O)CCCCCNC(=O)CCC(=O)N(O)CCCCCN [DEFEROXAMINE] | drug-induced liver injury reported | drug-induced liver injury reported | drug-induced liver injury reported | – | – | – |
| C[C@@H]1C/C=C/C=C/C=C/C=C/[C@H](O[C@@H]2O[C@H](C)[C@@H](O)[C@H](N)[C@@H]2O)C[C@@H]2O[C@](O)(C[C@@H](O)C[C@H]3O[C@@H]3/C=C/C(=O)O1)C[C@H](O)[C@H]2C(=O)O [NATAMYCIN] | no drug-induced liver injury reported | no drug-induced liver injury reported | drug-induced liver injury reported | – | – | – |
| CN1CCN(CCCN2c3ccccc3Sc3ccc(Cl)cc32)CC1 [PROCHLORPERAZINE] | no drug-induced liver injury reported | drug-induced liver injury reported | no drug-induced liver injury reported | – | – | – |
| COc1cc2c(cc1O)CC[C@@H]1[C@@H]2CC[C@]2(C)[C@@H](O)CC[C@@H]12 [2-METHOXYESTRADIOL] | drug-induced liver injury reported | drug-induced liver injury reported | no drug-induced liver injury reported | – | – | – |

| Molecule | Hepatotoxicity (Hepatotoxicity [1]) | Hepatotoxicity (Hepatotoxicity [2]) | Hepatotoxicity (Hepatotoxicity [3]) | Hepatotoxicity (Hepatotoxicity [1]; Liver) | Hepatotoxicity (Hepatotoxicity [2]; Liver) | Hepatotoxicity (Hepatotoxicity [3]; Liver) |
| --- | --- | --- | --- | --- | --- | --- |
| CCc1cccc2c3c([nH]c12)C(CC)(CC(=O)O)OCC3 (stereo unspecified) [ETODOLAC] | drug-induced liver injury reported | drug-induced liver injury reported | no drug-induced liver injury reported | – | – | – |
| C=C1/C(=C\C=C2/CCC[C@]3(C)[C@@H]([C@H](C)CCCC(C)(C)O)CC[C@@H]23)C[C@@H](O)C[C@@H]1O [CALCITRIOL] | drug-induced liver injury reported | drug-induced liver injury reported | no drug-induced liver injury reported | – | – | – |
| O=P(O)(O)C(Cl)(Cl)P(=O)(O)O [CLODRONIC ACID] | drug-induced liver injury reported | no drug-induced liver injury reported | no drug-induced liver injury reported | – | – | – |
| CC(CCc1ccccc1)NCC(O)c1ccc(O)c(C(N)=O)c1 (stereo unspecified) [LABETALOL] | no drug-induced liver injury reported | drug-induced liver injury reported | no drug-induced liver injury reported | – | – | – |
| CC(=O)N(CC(O)CO)c1c(I)c(C(=O)NCC(O)CO)c(I)c(C(=O)NCC(O)CO)c1I (stereo unspecified) [IOHEXOL] | no drug-induced liver injury reported | no drug-induced liver injury reported | drug-induced liver injury reported | – | – | – |
| CS(=O)(=O)c1ccc([C@@H](O)[C@@H](CO)NC(=O)C(Cl)Cl)cc1 [THIAMPHENICOL] | drug-induced liver injury reported | drug-induced liver injury reported | no drug-induced liver injury reported | – | – | – |
| C[C@](N)(Cc1ccc(O)c(O)c1)C(=O)O [METHYLDOPA] | no drug-induced liver injury reported | drug-induced liver injury reported | no drug-induced liver injury reported | – | – | – |
| CC1CC(OC(=O)C(O)c2ccccc2)CC(C)(C)C1 (stereo unspecified) [CYCLANDELATE] | drug-induced liver injury reported | no drug-induced liver injury reported | no drug-induced liver injury reported | – | – | – |
| Nc1ncnc2c1ncn2[C@@H]1O[C@H](CO)C[C@H]1O [CORDYCEPIN] | drug-induced liver injury reported | no drug-induced liver injury reported | no drug-induced liver injury reported | – | – | – |
| COc1c2occc2cc2ccc(=O)oc12 [METHOXSALEN] | drug-induced liver injury reported | drug-induced liver injury reported | no drug-induced liver injury reported | – | – | – |
| Clc1ccccc1CN1CCc2sccc2C1 [TICLOPIDINE] | – | – | – | drug-induced liver injury reported | drug-induced liver injury reported | no drug-induced liver injury reported |
| CCCC(C)(COC(N)=O)COC(N)=O [MEPROBAMATE] | drug-induced liver injury reported | no drug-induced liver injury reported | no drug-induced liver injury reported | – | – | – |
| CC[C@]1(O)C[C@H]2CN(CCc3c([nH]c4ccccc34)[C@@](C(=O)OC)(c3cc4c(cc3OC)N(C=O)[C@H]3[C@@](O)(C(=O)OC)[C@H](OC(C)=O)[C@]5(CC)C=CCN6CC[C@]43[C@@H]65)C2)C1 [VINCRISTINE] | drug-induced liver injury reported | drug-induced liver injury reported | drug-induced liver injury reported | – | – | – |
| NC(N)=O [UREA] | drug-induced liver injury reported | no drug-induced liver injury reported | no drug-induced liver injury reported | – | – | – |
| C=C1CC[C@H](O)C/C1=C/C=C1\CCC[C@]2(C)[C@@H]([C@H](C)CCCC(C)C)CC[C@@H]12 [CHOLECALCIFEROL] | drug-induced liver injury reported | no drug-induced liver injury reported | no drug-induced liver injury reported | – | – | – |
| CCc1oc2ccccc2c1C(=O)c1cc(I)c(O)c(I)c1 [BENZIODARONE] | drug-induced liver injury reported | no drug-induced liver injury reported | no drug-induced liver injury reported | – | – | – |
| ClC=C(Cl)Cl [TRICHLOROETHYLENE] | drug-induced liver injury reported | drug-induced liver injury reported | no drug-induced liver injury reported | – | – | – |
| CC1=C(CCC(=O)O)c2cc3nc(cc4[nH]c(cc5[nH]c(cc1n2)c(C)c5C(C)O)c(C)c4C(C)O)C(C)=C3CCC(=O)O (stereo unspecified) [HAEMAPORPHYRIN] | drug-induced liver injury reported | no drug-induced liver injury reported | no drug-induced liver injury reported | – | – | – |
